In PubChem BioAssay (NCI) one finds GI50 and TGI data, which are given here for eight molecules.

Test systems include M14 melanoma; SR leukemia; T-47D breast; HCC-2998 colon; SK-OV-3 ovarian; SF-268 CNS; OVCAR-3 ovarian; SNB-19 CNS; MCF7 breast; MDA-MB-435.
What all share (test): NCI anticancer screen, dose series, 48 h

Each structure is given as a SMILES string. Several values for one entry are separate records, joined by “and”; a condition that tells them apart may be missing. Equal entries are not always repeated.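 Protocol summary: plate cells (96-well), add compound at 5 concentrations, incubate 48 h, interpolate endpoints linearly. Abbreviation: GI50, concentration required for 50% inhibition of growth. The concentration for full growth arrest is given as TGI.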

Consider `O=C(CCCc1ccc(N(CCCl)CCCl)cc1)NCc1ccccc1`, for which the GI50 in the experiment with M14 melanoma was 4180 nM; with SR leukemia, 978 nM; with T-47D breast, 8.04 µM; with HCC-2998 colon, 15.4 µM; in the experiment on SK-OV-3 ovarian, 7.15 µM; with SF-268 CNS it was 5.69 µM. Moreover, the GI50 in the experiment with OVCAR-3 ovarian was 13700 nM; in the experiment on SNB-19 CNS, 18.7 µM; in the experiment on MCF7 breast, 3080 nM; in the experiment on MDA-MB-435, 3.69 µM. Moreover, the TGI is 24.2 µM with M14 melanoma; 3.66 µM with SR leukemia; 87.1 µM in the experiment on T-47D breast; 36.4 µM in the experiment with HCC-2998 colon; 40.8 µM in the experiment on SK-OV-3 ovarian; 57.8 µM in the experiment with SF-268 CNS. Besides, the TGI in the experiment with OVCAR-3 ovarian was 38.1 µM; in the experiment with SNB-19 CNS, above 100 µM; in the experiment with MCF7 breast, above 100 µM; with MDA-MB-435 it was 18 µM.
For the molecule `Cc1ccc(N)c(S)c1`, the TGI worked out at 30.8 µM with M14 melanoma; 45.8 µM in the experiment on SR leukemia; 33.9 µM with T-47D breast; 88.1 µM in the experiment with HCC-2998 colon; 70.8 µM in the experiment on SK-OV-3 ovarian; 46.2 µM with SF-268 CNS. The TGI with OVCAR-3 ovarian is 44 µM; in the experiment on SNB-19 CNS, 36.7 µM; with MCF7 breast, 38.8 µM; with MDA-MB-435, 36.1 µM.
With `C=C(CO)C(=O)OC1CC(=C)C2CC(O)C(C)C2C2OC(=O)C(=C)C12` (stereo not given), the TGI in the experiment on M14 melanoma is 33.4 µM; in the experiment on SR leukemia, 51.2 µM; in the experiment on T-47D breast, above 100 µM; with HCC-2998 colon it was 40.9 µM; in the experiment with SK-OV-3 ovarian it was above 100 µM; in the experiment with SF-268 CNS it was 39.4 µM. Besides, the TGI came to 34.2 µM in the experiment on OVCAR-3 ovarian, 61.6 µM in the experiment on SNB-19 CNS, 34.3 µM in the experiment on MCF7 breast and 45.2 µM with MDA-MB-435.
As for `CCCCn1c(=O)[nH]c(N)c([C@@H]2c3c([nH]c(=O)n(CCCC)c3=O)Oc3ccc4ccccc4c32)c1=O`, the GI50 was 1920 nM with M14 melanoma; 458 nM in the experiment with SR leukemia; 10.7 µM in the experiment with T-47D breast; 1.67 µM in the experiment on HCC-2998 colon; 2.74 µM in the experiment on SK-OV-3 ovarian; 1.76 µM in the experiment on SF-268 CNS. The GI50 in the experiment with OVCAR-3 ovarian is 1630 nM; with SNB-19 CNS, 1.72 µM; in the experiment on MCF7 breast, 2880 nM; with MDA-MB-435, 1.7 µM. The TGI with M14 melanoma stood at 4.2 µM; with SR leukemia, 15.8 µM; in the experiment on T-47D breast, 37.6 µM; with HCC-2998 colon, 3.47 µM; in the experiment on SK-OV-3 ovarian, 11.9 µM; with SF-268 CNS it was 3.58 µM. For the same molecule, the TGI in the experiment on OVCAR-3 ovarian was found to be 2.98 µM; with SNB-19 CNS, 3.36 µM; in the experiment with MCF7 breast it was 24 µM; in the experiment with MDA-MB-435, 3.11 µM.
As for `CC[C@@]1(OP(=O)(O)O)C(=O)OCc2c1cc1n(c2=O)Cc2cc3ccccc3nc2-1`, the GI50 is 173 nM with M14 melanoma; 1.57 µM in the experiment on HCC-2998 colon; 0.105 µM in the experiment with SK-OV-3 ovarian; 0.0774 µM in the experiment on SF-268 CNS; 930 nM in the experiment on OVCAR-3 ovarian; 0.143 µM with SNB-19 CNS. In addition, the TGI was 1.87 µM and 5.28 µM in the experiment with M14 melanoma; 0.0566 µM in the experiment with SR leukemia; 0.867 µM in the experiment with T-47D breast; 6.06 µM and 8.45 µM with HCC-2998 colon; 7.98 µM and 6.46 µM in the experiment with SK-OV-3 ovarian; 5.28 µM and 9.45 µM in the experiment on SF-268 CNS. Besides, the TGI came to 3.79 µM in the experiment with OVCAR-3 ovarian, 39.3 µM with SNB-19 CNS, 1.55 µM with MCF7 breast and 2.11 µM with MDA-MB-435.
With `COc1cc(/C=C2\CC3C4CC=C5CC(OC(C)=O)CC[C@]5(C)C4CC[C@]3(C)C2=O)ccc1OCCN1CCCC1` (stereo not given in full), the GI50 in the experiment on M14 melanoma was 1420 nM; in the experiment with SR leukemia, 708 nM; with T-47D breast, 5.4 µM; in the experiment on HCC-2998 colon it was 12.5 µM; with SK-OV-3 ovarian, 23.7 µM; in the experiment on SF-268 CNS, 8.53 µM. The GI50 in the experiment on OVCAR-3 ovarian was 3000 nM; in the experiment with SNB-19 CNS, 23.6 µM; in the experiment on MCF7 breast, 2690 nM; in the experiment with MDA-MB-435, 3.38 µM. Moreover, the TGI was 2.9 µM in the experiment with M14 melanoma; 2.87 µM in the experiment on SR leukemia; above 91 µM with T-47D breast; 25 µM in the experiment with HCC-2998 colon; above 63.9 µM with SK-OV-3 ovarian; 26.7 µM in the experiment with SF-268 CNS. In addition, the TGI in the experiment on OVCAR-3 ovarian was 10.5 µM; in the experiment with SNB-19 CNS it was above 66.9 µM; in the experiment on MCF7 breast, above 22.4 µM; with MDA-MB-435 it was 13.1 µM.
As to `CC(C)(C)CC(C)(C)c1ccc(OCCO)cc1`, the GI50 with M14 melanoma was 9.29 µg/mL; with SR leukemia, 1.43 µg/mL; in the experiment with T-47D breast it was 2.1 µg/mL; in the experiment on HCC-2998 colon, 7.57 µg/mL; with SK-OV-3 ovarian, 11.2 µg/mL; in the experiment on SF-268 CNS, 8.87 µg/mL. In addition, the GI50 was 2.63 µg/mL in the experiment on OVCAR-3 ovarian, 6.58 µg/mL with SNB-19 CNS, 4.01 µg/mL in the experiment with MCF7 breast and 6.26 µg/mL in the experiment with MDA-MB-435. Besides, the TGI in the experiment on M14 melanoma was 20.6 µg/mL; with SR leukemia, above 75 µg/mL; in the experiment on T-47D breast, 18.3 µg/mL; in the experiment on HCC-2998 colon, 19.7 µg/mL; in the experiment on SK-OV-3 ovarian, 28.6 µg/mL; in the experiment on SF-268 CNS, 27.3 µg/mL. Besides, the TGI in the experiment on OVCAR-3 ovarian was 13.4 µg/mL; in the experiment on SNB-19 CNS it was 19.5 µg/mL; in the experiment with MCF7 breast, 17 µg/mL; with MDA-MB-435, 18.6 µg/mL.
Turning to `Cc1cc(I)cc(CNCCN(C)C)c1O`, the GI50 in the experiment with M14 melanoma was 33900 nM; with T-47D breast, 76.3 µM; with HCC-2998 colon, 35.1 µM; in the experiment on SK-OV-3 ovarian it was above 100 µM; with SF-268 CNS, 65.9 µM; in the experiment with OVCAR-3 ovarian it was above 86000 nM. In addition, the GI50 in the experiment with SNB-19 CNS is above 100 µM; in the experiment on MCF7 breast, above 100000 nM; in the experiment on MDA-MB-435, 37.1 µM. In addition, the TGI in the experiment on M14 melanoma is above 100 µM; in the experiment with SR leukemia it was 0.383 µM; with T-47D breast, above 100 µM; with HCC-2998 colon, above 100 µM; in the experiment with SK-OV-3 ovarian, above 100 µM; with SF-268 CNS, above 100 µM. The TGI in the experiment on OVCAR-3 ovarian, with SNB-19 CNS, in the experiment on MCF7 breast and in the experiment with MDA-MB-435 was above 100 µM each time.
